# According to patent publication US11472843B2, “Malacidins and methods of use” (The Rockefeller University, priority 2017, dated 2022):
# How the values were obtained:
# [1] = system: Salmonella enterica IR 715; assay: MIC assay, Salmonella enterica; assay type: cell-based
# Protocol: (§1) MIC assays were performed in duplicate in 96-well microtiter plates on the basis of the protocol recommended by the Clinical and Laboratory Standards Institute (Cockerill, 2012, Clinical and Laboratory Standards Institute). All presented data are the average of at least three independent assays. Stock solutions of malacidin or daptomycin (2 mg ml^−1 in H2O) were added to the first well in a row and serially diluted (twofold per transfer) across the microtiter plate. CaCl2 was supplemented to media at a final concentration of 15 mM and fetal bovine serum (ATCC) was added to media (1:10) to test the effect of serum. Overnight cultures of bacteria were diluted 5,000-fold, and 50 μl was used as an inoculum in each well. MIC values were determined by visual inspection after 18 h incubation (30° C., static growth). For the enhanced calcium titration experiments, standard MIC assays were performed with methicillin-resistant Staphylococcus aureus (MRSA) PFGE strain type USA300 in media supplemented with CaCl2 at: 25.0, 18.8, 14.1, 7.03, 3.52, 2.50, 1.76, 0.880, 0.440, 0.250 and 0 mM. To assess the effects of monovalent and divalent cations on malacidin activity, standard MIC assays were performed with MRSA USA300 in media supplemented with 15 mM CaCl2, MgCl2, MnCl2, ZnCl2, SrCl2, NaCl and KCl. To evaluate the effects of pulmonary surfactants on activity against a community-acquired pneumonia-causing pathogen, standard MIC assays were performed with Streptococcus pneumoniae TCH8431 in media supplemented with both 15 mM […] and Survanta (beractant) at a final concentration of 5, 1, 0.5, 0.25 or 0% (volume/volume (v/v) percent).
# MRSA USA300 = assay: Membrane depolarization assay (DiBAC4); assay type: cell-based, Staphylococcus aureus; conditions: S. aureus cells pretreated with DiBAC4; 20 μg ml^−1
# Protocol: The effects of malacidin on membrane integrity was assessed using SYTOX green. In brief, single colonies of MRSA USA300 were grown in LB media with and without 15 mM CaCl2 to an OD600 nm of 0.35. Nine hundred microlitres of cells were mixed with 100 μL of 17 μM SYTOX green dye (Thermo Fisher). The resulting mixture was incubated for 5 min at 22° C., and then distributed to a microtiter plate at 50 μl per well. An initial reading of fluorescence pre-antibiotic addition was measured at excitation and emission wavelengths of 488 nm and 523 nm, respectively. Fifty microlitres of antibiotics was added to respective wells at a final concentration of 20 μg ml^−1. Measurements were immediately collected for 10 min. To assess the effects of malacidin on membrane depolarization, similar assays were set up using the membrane potential probe, DiBAC4 (bis-(1,3-dibutylbarbituric acid)trimethine oxonol). Single colonies of MRSA USA300 were grown in LB media with and without 15 mM CaCl2 to an OD600 nm of 0.35. Nine hundred microlitres of cells were mixed with 100 μl of 20 μg ml DiBAC4dye (Thermo Fisher). The resulting mixture was incubated for 5 min at 22° C., and then distributed to a microtiter plate at 50 μl per well. An initial reading of fluorescence pre-antibiotic addition was measured at excitation and emission wavelengths of 492 nm and 515 nm, respectively. […]
# [2] = system: Acinetobacter baumannii ATCC 17978; assay: MIC assay, A. baumannii; assay type: cell-based; conditions: range of at least three independent experiments
# Protocol: as §1
# S. aureus NRS146 = assay: MIC assay, S. aureus NRS146; assay type: cell-based, Staphylococcus aureus; conditions: β-lactams
# Protocol: as §1
# [3] = system: Bacillus subtilis 168 IAI; assay: MIC assay, B. subtilis; assay type: cell-based
# Protocol: as §1
# [4] = system: Candida albicans ATCC 1884; assay: MIC assay, C. albicans; assay type: cell-based
# Protocol: as §1
# [5] = system: red blood cell (5% sheep blood agar plates); assay type: cell-based
# Protocol: Cytotoxicity against human cell lines was tested using an ATP release assay, CelITiter-Glo (Promega), according to the manufacturer's instructions. HEK293 cells (293FT, Thermo Fisher Scientific, no. R700-07) and MRC5 cells (ATCC CCL-171) were grown in complete DMEM media supplemented with 10% FBS, and were inspected visually for authentication and tested for mycoplasma contamination using a MycoAlert detection kit (Lonza). Cells were grown to confluence, trypsinized, counted and plated in 384-well cell culture plates at an appropriate density (2,500 cells per well for HEK293 and 1000 cells per well for MRC5). The test compound was added 24 h later in the presence of calcium, and viability was determined after 4.5 h of incubation. Experiments were performed with biological replicates. Haemolytic activity was evaluated by a red blood cell disc diffusion assay. Twenty-microlitre stocks of malacidin A and Triton X-100 were infused on filter discs, dried completely and then overlaid on 5% sheep blood agar plates (Hardy Diagnostics). The plates were incubated for 24 h at 20° C., and then checked for lysis.
# [6] = system: UDP-MurNAc-pentapeptide in MRSA USA300; assay: UDP-MurNAc-pentapeptide accumulation assay; assay type: cell-based, Staphylococcus aureus; conditions: 10 μg ml^−1, 60 min, UPLC-MS
# Protocol: The intracellular accumulation of the cell wall precursor UDP-MurNAc-pentapeptide after treatment of MRSA USA300 with malacidin was assessed as previously described (Schneider et al., […], Antimicrob Agents Ch 53:1610-18). In brief, single colonies of MRSA USA300 were grown in LB media with and without 15 mM CaCl2 to an OD600 nm of 0.6. […] of cells and medium were incubated with a final concentration of 130 μg ml^−1 chloramphenicol for 15 min at 37° C. Antibiotics to be assayed were added at 10 μg ml^−1 and incubated for 60 min at 37° C. Vancomycin, known to form a complex with lipid II, was used as a positive control. Cells were collected by centrifugation, and resuspended in 30 μl dH2O and incubated in boiling water for 15 min. The cell extract was then centrifuged at 14,000 g. Supernatant was analysed for UDP-linked cell wall precursors by a UPLC-MS system. Experiments were performed with biological replicates.
substance,measurement,setting,value
malacidin A,MIC,[1],>100 mg/L
same,Loss of membrane potential (DiBAC4),MRSA USA300,no significant loss of membrane potential
same,MIC,[2],>100 mg/L
same,MIC,"S. aureus NRS146; S. aureus NRS146, vancomycin (VISA), 15 mM CaCl2",0.4-0.8 μg m1^−1
same,MIC,"S. aureus NRS146; Staphylococcus aureus NRS146, Vancomycin (VISA)",0.4 to 0.8 µg/mL
same,MIC,"[3]; B. subtilis, 15 mM CaCl2",0.2-0.4 μg m1^−1
same,MIC,[3]; Bacillus subtilis 168 IAI,0.2 to 0.4 µg/mL
same,MIC,"[4]; C. albicans, 15 mM CaCl2",>100 μg m1^−1
same,MIC,[4]; Candida albicans ATCC 1884,>100 µg/mL
same,Haemolytic activity,[5],no hemolytic effects
same,Accumulation of cell wall intermediate UDP-MurNAc-pentapeptide,[6],accumulation of the cell wall intermediate UDP-MurNAc-pentapeptide
